Laboratory results reported in patent US9914737B2, “Triazolopyrimidinone or triazolopyridinone derivatives, and use thereof” (ST PHARM CO., LTD., priority 2014, dated 2018).
Counter-ions that a name gives are not always drawn.

molecular target: T1, tankyrase 1 (Homo sapiens, UniProt O95271); experiment: Analysis of activity of tankyrase 1 (Trevigen kit, ELISA absorbance at 450 nm); format: biochemical; conditions: not given
T1 construct: purchased Trevigen 4700-096-K
T1 sequence (O95271 1-1327): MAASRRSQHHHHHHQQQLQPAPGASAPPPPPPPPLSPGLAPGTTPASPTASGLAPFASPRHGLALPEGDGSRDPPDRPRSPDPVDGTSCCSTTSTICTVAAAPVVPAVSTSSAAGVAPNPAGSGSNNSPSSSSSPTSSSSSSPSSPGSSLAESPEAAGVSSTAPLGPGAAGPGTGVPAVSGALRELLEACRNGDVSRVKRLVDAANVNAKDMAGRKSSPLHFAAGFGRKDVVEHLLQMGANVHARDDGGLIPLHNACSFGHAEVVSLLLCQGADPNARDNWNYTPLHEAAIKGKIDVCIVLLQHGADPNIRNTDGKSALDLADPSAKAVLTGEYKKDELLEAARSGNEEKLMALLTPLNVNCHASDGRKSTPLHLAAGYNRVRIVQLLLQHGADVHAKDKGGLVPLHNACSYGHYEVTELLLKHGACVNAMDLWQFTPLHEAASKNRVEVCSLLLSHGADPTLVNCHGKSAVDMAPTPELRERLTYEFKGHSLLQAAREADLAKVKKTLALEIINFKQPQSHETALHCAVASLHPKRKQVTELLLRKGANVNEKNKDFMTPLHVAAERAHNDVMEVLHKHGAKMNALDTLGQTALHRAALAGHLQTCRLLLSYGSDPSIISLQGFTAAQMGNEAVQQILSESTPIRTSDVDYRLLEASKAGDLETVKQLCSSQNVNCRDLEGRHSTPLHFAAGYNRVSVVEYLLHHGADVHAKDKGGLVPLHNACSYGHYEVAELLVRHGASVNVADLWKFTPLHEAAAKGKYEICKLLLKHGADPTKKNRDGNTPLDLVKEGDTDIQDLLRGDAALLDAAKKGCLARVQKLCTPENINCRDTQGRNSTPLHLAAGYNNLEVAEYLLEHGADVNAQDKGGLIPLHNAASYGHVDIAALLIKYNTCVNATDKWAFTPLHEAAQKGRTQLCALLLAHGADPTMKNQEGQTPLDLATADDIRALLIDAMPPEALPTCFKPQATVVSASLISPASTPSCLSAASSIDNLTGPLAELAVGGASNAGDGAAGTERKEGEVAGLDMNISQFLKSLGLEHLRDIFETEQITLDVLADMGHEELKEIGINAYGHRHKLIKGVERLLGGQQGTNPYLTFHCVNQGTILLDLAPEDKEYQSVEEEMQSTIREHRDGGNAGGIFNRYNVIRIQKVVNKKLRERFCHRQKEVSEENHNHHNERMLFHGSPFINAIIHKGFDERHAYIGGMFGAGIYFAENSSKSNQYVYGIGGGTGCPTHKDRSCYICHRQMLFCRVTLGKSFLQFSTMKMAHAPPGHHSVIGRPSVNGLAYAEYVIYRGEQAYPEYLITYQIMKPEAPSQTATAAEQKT
Experimental: Activities of novel compounds synthesized according to Examples 1 to 72 against tankyrase 1 were analyzed using a Trevigen kit (Cat. No. 4700-096-K). Poly PAR histone protein-coated 96-well plate, anti-PAR monoclonal antibody and goat anti-mouse IgG-HRP were used for measurement of absorbance by ELISA method. Specifically, 20× I-PAR assay buffer was diluted to 1× by adding water, and 50 μL of the diluted buffer was added to each well of the 96-well plate followed by reacting at rt for 30 min. Then, the supernatant was completely removed from each well and 10 μL of 1× I-PAR assay buffer and 15 μL of assay substrate were added to each well along with 1 μL of a 50× solution of inhibitors to be tested, which were the compounds obtained in the Examples 1 to 72. 10 mUnits/μL of tankyrase 1 enzyme was diluted 50-fold with 1× I-PAR assay buffer and 25 μL of the diluted enzyme was added to each well and reacted while stirring at rt for 30 min. One without any compound of the present invention was used as a positive control and another containing 1× I-PAR assay buffer with the same volume instead of tankyrase 1 enzyme was used as a negative control. Upon completion of the reaction, 200 μL of PBSX, which was prepared by adding 0.1% triton X-100 to PBS, was added and removed and this washing process was repeated twice. Washing was repeated twice more using PBS in the same manner. 5× antibody diluent was diluted with distilled water to 1× concentration, 50 μL of the diluted goat anti-mouse IgG-HRP to 1/2000 was added to each well and reacted while stirring at rt for 30 min. Washes were carried out twice using PBSX and PBS, respectively. After adding 50 μL of TACS-sapphire to each well of the plate, the plate was blocked from light to react for 10 min to 15 min and the color of the reaction solution turned blue. To stop the reaction, 50 μL of 0.2N HCl was added to turn the solution yellow. Finally, the absorbance of the resulting solution was measured at 450 nm.

Row | IC50 [nM] | Structure (SMILES)
1 | 22.1 | Cn1nnc2c(=O)[nH]c(N3CCN(c4c(F)cc(OC5COC5)cc4F)CC3)cc21 [compound 62, 6-(4-(2,6-Difluoro-4-(oxetan-3-yloxy)phenyl)piperazin-1-yl)-1-methyl-1H-[1,2,3]triazolo[4,5-c]pyridin-4(5H)-one]

same assay, conditions: tankyrase 1 enzyme, Trevigen kit Cat. No. 4700-096-K, 30 min at rt; read-out: TNKS1 (IC50)

Row | IC50 [nM] | Structure (SMILES)
2 | 13.4 | C[C@H](N)C(=O)OCCOc1cc(F)c(N2CCN(c3cc4c(nnn4C)c(=O)[nH]3)CC2)c(F)c1 [compound 58, (S)-2-(3,5-difluoro-4-(4-(1-methyl-4-oxo-4,5-dihydro-1H-[1,2,3]triazolo[4,5-c]pyridin-6-yl)piperazin-1-yl)phenoxy)ethyl2-aminopropanoate hydrochloride]
3 | 16 | Cn1nnc2c(=O)[nH]c(N3CCN(c4c(F)cc(OCC(O)CO)cc4F)CC3)cc21 (stereo not drawn) [compound 59, 6-(4-(4-(2,3-Dihydroxypropoxy)-2,6-difluorophenyl)piperazin-1-yl)-1-methyl-1H-[1,2,3]triazolo[4,5-c]pyridin-4(5H)-one]
4 | 25.8 | Cn1nnc2c(=O)[nH]c(N3CCN(c4c(F)cc(CN5CCOCC5)cc4F)CC3)cc21 [compound 60, 6-(4-(2,6-Difluoro-4-(morpholinomethyl)phenyl)piperazin-1-yl)-1-methyl-1H-[1,2,3]triazolo[4,5-c]pyridin-4(5H)-one]
5 | 28.2 | CN1CCN(Cc2cc(F)c(N3CCN(c4cc5c(nnn5C)c(=O)[nH]4)CC3)c(F)c2)CC1 [compound 61, 6-(4-(2,6-Difluoro-4-((4-methylpiperazin-1-yl)methyl)phenyl)piperazin-1-yl)-1-methyl-1H-[1,2,3]triazolo[4,5-c]pyridin-4(5H)-one]
6 | 27.3 | CC(O)c1cc(F)c(N2CCN(c3cc4c(nnn4C)c(=O)[nH]3)CC2)c(F)c1 (stereo not drawn) [compound 63, 6-(4-(2,6-Difluoro-4-(1-hydroxyethyl)phenyl)piperazin-1-yl)-1-methyl-1H[1,2,3]triazolo[4,5-c]pyridin-4(5H)-one]
7 | 31.2 | COC(C)c1cc(F)c(N2CCN(c3cc4c(nnn4C)c(=O)[nH]3)CC2)c(F)c1 (stereo not drawn) [compound 64, 6-(4-(2,6-Difluoro-4-(1-methoxyethyl)phenyl)piperazin-1-yl)-1-methyl-1H[1,2,3]triazolo[4,5-c]pyridin-4(5H)-one]
8 | 40.2 | COCCN(C)Cc1cc(F)c(N2CCN(c3cc4c(nnn4C)c(=O)[nH]3)CC2)c(F)c1 [compound 65, 6-(4-(2,6-Difluoro-4-(((2-methoxyethyl)(methyl)amino)methyl)phenyl)piperazin-1-yl)-1-methyl-1H-[1,2,3]triazolo[4,5-c]pyridin-4(5H)-one]
9 | 331 | Cn1nnc(C2CCN(c3cc4c(nnn4C)c(=O)[nH]3)CC2)n1 [compound 66, 1-Methyl-6-(4-(2-methyl-2H-tetrazol-5-yl)piperidin-1-yl)-1H-[1,2,3]triazolo[4,5-c]pyridin-4(5H)-one]
10 | 18.6 | Cn1nnc2c(=O)[nH]c(N3CCN(c4c(F)cc(OCCN5CCCC5)cc4F)CC3)cc21 [compound 67, 6-(4-(2,6-Difluoro-4-(2-(pyrrolidin-1-yl)ethoxy)phenyl)piperazin-1-yl)-1-methyl-1H-[1,2,3]triazolo[4,5-c]pyridin-4(5H)-one]
11 | 14.2 | CN1CCN(CCOc2cc(F)c(N3CCN(c4cc5c(nnn5C)c(=O)[nH]4)CC3)c(F)c2)CC1 [compound 68, 6-(4-(2,6-Difluoro-4-(2-(4-methylpiperazin-1-yl)ethoxy)phenyl)piperazin-1-yl)-1-methyl-1H-[1,2,3]triazolo[4,5-c]pyridin-4(5H)-one]
12 | 19.1 | Cn1nnc2c(=O)[nH]c(N3CCN(c4c(F)cc(OCCCN5CCCCC5)cc4F)CC3)cc21 [compound 69, 6-(4-(2,6-Difluoro-4-(3-(piperidin-1-yl)propoxy)phenyl)piperazin-1-yl)-1-methyl-1H-[1,2,3]triazolo[4,5-c]pyridin-4(5H)-one]
13 | 15.6 | Cn1nnc2c(=O)[nH]c(N3CCN(c4c(F)cc(OCC(=O)N5CCCC5)cc4F)CC3)cc21 [compound 70, 6-(4-(2,6-Difluoro-4-(2-oxo-2-(pyrrolidin-1-yl)ethoxy)phenyl)piperazin-1-yl)-1-methyl-1H-[1,2,3]triazolo[4,5-c]pyridin-4(5H)-one]
14 | 24.9 | Cn1nnc2c(=O)[nH]c(N3CCN(c4c(F)cc(OCCN)cc4F)CC3)cc21 [compound 71, 6-(4-(4-(2-Aminoethoxy)-2,6-difluorophenyl)piperazin-1-yl)-1-methyl-1H-[1,2,3]triazolo[4,5-c]pyridin-4(5H)-one]
15 | 7.31 | Cn1nnc2c(=O)[nH]c(N3CCN(c4c(F)cc(OCCN5CCC(N)CC5)cc4F)CC3)cc21 [compound 72, 6-(4-(4-(2-(4-Aminopiperidin-1-yl)ethoxy)-2,6-difluorophenyl)piperazin-1-yl)-1-methyl-1H-[1,2,3]triazolo[4,5-c]pyridin-4(5H)-one]
